Reference: patent publication US7241797B2, “Method of increasing milk production” (University of Cincinnati, priority 2002, dated 2007)

Assays:
cultured mammospheres = assay: Morphology and morphometry of cultured mammospheres treated with serotonergic agents; type: cell-based, mouse; conditions: for Mammosphere morphology (qualitative): 1 μg·ml−1, replenished each day, 7-day incubation
Description: Qualitative comparison of typical mammospheres in cultures treated with (a) control; (b) 5-HT; (c) methysergide; (d) PCPA. Each of the agents was added to the medium at a concentration of 1 μg·ml^−1 and replenished each day during a 7-day incubation. (e) histogram depicting the median areas (in arbitrary units) of mammospheres sorted by size (n=350, 2 replicate experiments) of control- and methysergide-treated cultures.
In addition to the effects on gene expression shown above, perturbing 5-HT signaling caused morphological changes in mammosphere cultures. Under control conditions the mammospheres were comprised of a boundary layer surrounding an interior lumenal space (FIG. 5a). Qualitatively, mammospheres treated with different serotonergic agents had markedly different structures. […] Those treated with PCPA were very distinctive because the boundary layer was consistently thin, and, there was a very high contrast between the dark boundary and light central space.
We performed a morphometric comparison of control and methysergide-treated mammospheres employing a Macintosh computer using the public domain NIH Image program (developed at the U.S. National Institutes of Health and available on the Internet at http://rsb.info.nih.gov/nih-image/). Threshold was adjusted to automatically outline the mammospheres, and the organoids were sorted into a frequency distribution based on particle sizes. The median size of the methysergide-treated mammospheres was about 40% larger than the control mammospheres (p<0.01; Mann-Whitney U-test; FIG. 5e).
(§1) Primary mouse mammary epithelium was prepared from nulliparous mice by enzymatic digestion and differential trypsinization, modifying the method of Imagawa (Pedchenko, V. K. & Imagawa, W. T. Mammogenic hormones differentially modulate keratinocyte growth factor (KGF)-induced proliferation and KGF receptor expression in cultured mouse mammary gland epithelium. Endocrinology 139,2519-2526 (1998)). Enriched epithelial cells (2×10^5 cells per well) were plated in basement membrane (Matrigel, 0.5 ml/well, BD Biosciences) reconstituted in a 12-well plate so that they formed mammospheres. They were pre-incubated for seven days, and treated with ovine PRL (1 μg/ml) for 2 days. The cell culture experiments were replicated 2-3 times in all cases.

[1] = system: WAP gene expression in cultured mammospheres; assay: Milk protein gene expression (RT-PCR) in mammosphere cultures treated with serotonergic agents; type: cell-based, mouse; conditions: cells cultured in 1% fetal serum, WAP constitutively expressed at a low level
Description: Primary mouse mammary cultures were treated with PRL, methysergide (Methy.), or 5-HT as noted (+). RT-PCR products for various genes expressed in the mammary gland are shown by the labels at the left margin.
We tested whether 5-HT might have an autocrine/paracrine effect first by examining the expression of various genes in mammosphere cultures (FIG. 4), and then by morphometry (FIG. 5). Using a broad-spectrum 5-HT receptor antagonist methysergide, in combination with PRL, we observed that the expression levels of several mammary gland genes, including whey acidic protein (WAP), glycosylated cell adhesion molecule-1 (GlyCAM-1) and […]. The effects of both 5-HT and methysergide (agonist and antagonist) were tested using cells cultured in 1% fetal serum, wherein the WAP gene is constitutively expressed at a low level. Under these conditions 5-HT suppressed WAP, and methysergide induced WAP.
Primary mouse mammary epithelium was prepared from nulliparous mice by enzymatic digestion and differential trypsinization, modifying the method of Imagawa (Pedchenko, V. K. & Imagawa, W. T. Mammogenic hormones differentially modulate keratinocyte growth factor (KGF)-induced proliferation and KGF receptor expression in cultured mouse mammary gland epithelium. Endocrinology 139,2519-2526 (1998)). […]

lactating dams (mice) = assay: Milk yield of nursing dams given carbidopa injections (nursing-related weight loss as index of milk yield); type: in vivo
Description: Nursing dams were given 4 injections of carbidopa (1 mg/kg body weight) at 12 h intervals (or control vehicle). After the final injection the pups were removed from the dam for 4 h. At the end of 4 h the dams were weighed and reunited with the pups to nurse for 1 h. After the nursing interval the dams were again weighed and the nursing-related weight losses were analyzed as an index of milk yield (Table 1). The litters of lactating dams (mice) were adjusted to 8 pups on day 1 postpartum. Carbidopa (1 mg/kg in 45% hydroxypropyl-β-cyclodextrin) or control vehicle were injected at approximately 12 h intervals beginning in the evening of postpartum day 3. After 4 injections (morning of day 5) pups were separated from the dams for 4 h. At the end of separation interval, the dams were injected with oxytocin (0.2U) and both the dams and their litters and were weighed. The litters were reunited with the dams for a 1 h nursing interval. The weights of the dams were measured after nursing and the differences in the weights of the dams before and after nursing are reported as milk yield. The percent increases with carbidopa-treatment are shown for statistically significant variables. […] Numbers of animals in treatment groups are in parentheses.

[2] = system: TPH mRNA in primary mouse mammary epithelial organoids; assay: TPH mRNA induction in primary cultures of mammary epithelial organoids; type: cell-based
Description: (b) TPH induction by milk stasis. Contralateral #3 glands were either open and suckled (+) or sealed with cyanoacrylate glue and unsuckled (−). RT-PCR was performed for TPH and glyceraldehyde-phosphate-dehydrogenase (GPDH), as shown.
(§2) Having established that mammary gland TPH expression was induced in vivo we studied TPH induction in primary cultures of mammary epithelial organoids. These organoids, sometimes referred to as “mammospheres,” secrete milk proteins, fluids and ions vectorially into a closed central lumen when cultured with lactogenic hormones. TPH increased slowly for at least 48 h following addition of PRL to the medium, and the optimum PRL dose was 1 μg/ml (approximately 20 nM) (FIG. 2a). […] First, the time course of TPH mRNA induction was much slower that other genes known to be directly regulated by PRL. Secondly, the in vitro induction was blocked by cycloheximide; and thirdly, the TPH promoter was not induced by PRL in reporter gene assays (unpublished results).
as §1

TPH promoter = TPH promoter reporter gene assays; type: cell-based; conditions: unpublished results
Description: as §2

[3] = carbidopa 1 mg/kg, 4 injections

With N[C@@H](Cc1ccc(Cl)cc1)C(=O)O (racemic) [PCPA, p-chloro-phenylalanine] the “Mammosphere morphology (qualitative)” value (cultured mammospheres) was “easily visible central lumena”.

For NCCc1c[nH]c2ccc(O)cc12 [5-HT, 5-hydroxytryptamine], the “Mammosphere size vs controls (qualitative)” value (cultured mammospheres; 1 μg·ml−1, 7-day incubation, no quantitative morphometry) was “smaller than the controls”, the “Mammosphere morphology (qualitative)” value (cultured mammospheres) was “either filled or collapsed, with no obvious lumen” and the “Effect on WAP gene expression” value [1] was “suppressed”.

For C[C@@](Cc1ccc(O)c(O)c1)(NN)C(=O)O [Carbidopa, S-(−)-α-hydrazino-3,4-dihydroxy-2-methylbenzenepropanoic acid], the “Percent increase in litter weight relative to dam weight with carbidopa treatment vs vehicle control” value (lactating dams (mice); [3]) was greater than 8.1%, the “Percent increase in milk yield with carbidopa treatment vs vehicle control” value (lactating dams (mice); [3]) was greater than 16.7% and the “Milk Yield (difference in dam weight before and after 1 h nursing)” value (lactating dams (mice); carbidopa 1 mg/kg, 4 injections at 12 h intervals, 4 h separation, 1 h nursing, mean ± s.e.m.) was 2.1 ± 0.1 g. The “Percent increase in litter (pup) weight with carbidopa treatment vs vehicle control” value (lactating dams (mice); carbidopa 1 mg/kg, 4 injections, absolute basis) was greater than 11.6%, the “Litter/Dam (litter weight relative to dam weight)” value (lactating dams (mice); carbidopa 1 mg/kg, 4 injections, mean ± s.e.m.) was 0.93 ± 0.03 and the “Litter Weight” value (lactating dams (mice); litters of 8 pups, carbidopa 1 mg/kg to dam, 4 injections, mean ± s.e.m.) was 36.5 ± 1.8 g.

In the case of C[C@@H]1C[C@@H]([C@H](O)CC2CC(=O)NC(=O)C2)C(=O)[C@@H](C)C1 [cycloheximide], the “Effect on in vitro induction of TPH by PRL” value [2] is reported as “blocked”.

For CC[C@@H](CO)NC(=O)[C@@H]1C=C2c3cccc4c3c(cn4C)C[C@H]2N(C)C1 [methysergide], the “Median size of mammospheres, increase vs control mammospheres” value (cultured mammospheres; 1 μg·ml−1, 7-day incubation, p<0.01, Mann-Whitney U-test) was “about 40%”, the “Mammosphere morphology (qualitative)” value (cultured mammospheres) was “easily visible central lumena” and the “Effect on WAP gene expression” value [1] was “induced”.

B1: PRL: prolactin, lactogenic hormone; ovine PRL added to the mammosphere cultures (protein, UniProt P01240 31-229, looked up)
Prolactin: TPVCPNGPGNCQVSLRDLFDRAVMVSHYIHNLSSEMFNEFDKRYAQGKGFITMALNSCHTSSLPTPEDKEQAQQTHHEVLMSLILGLLRSWNDPLYHLVTEVRGMKGVPDAILSRAIEIEEENKRLLEGMEMIFGQVIPGAKETEPYPVWSGLPSLQTKDEDARHSAFYNLLHCLRRDSSKIDTYLKLLNCRIIYNNNC
With B1 the “Optimum dose for TPH mRNA induction” value [2] was 1 µg/mL, the “Optimum dose for TPH mRNA induction (molar)” value [2] was “approximately 20 nM” and the “Induction of the TPH promoter” value (TPH promoter) was “not induced”.
